Experimental data as given in patent US20240174649A1, “CULLIN-RING E3 UBIQUITIN LIGASE 4 INHIBITOR COMPOUNDS AND METHODS OF THEIR USE” (ICAHN SCHOOL OF MEDICINE AT MOUNT SINAI, priority 2021, published 2024).

How the values were obtained:
E3 (CUL1) = E3 (CUL1) (Homo sapiens (Human), UniProt Q13616); assay: E3 (CUL1) inhibition (Table 1); format: biochemical
Method: The reaction mixture (15 μl) was assembled onto a 384-well microtiter plate. […] ATP (0.66 mM) was then added to the mix followed by a brief centrifugation to settle down the mixture. The resulting plate was incubated at 30° C. in the Synergy-H1 reader and the fluorescence signal was monitored. Ubiquitination was quantified based on the ratio of acceptor:donor fluorescence (excitation 515 nm; donor emission 570 nm, acceptor emission 670 nm).

cancer cells = assay: Apoptosis, Annexin V flow cytometry; format: cell-based; conditions: Table 1
Method: Cells (5×10^4) were seeded 24 hours before compound treatment. Compound was added to the culture media and cells were cultured with the compound for 48 hours. The treated cells were then transferred into 5 ml flow cytometry tubes and the well was washed once with PBS to collect any remaining cells. The cells were then pelleted at 500×g for 5 min with a Beckman CS-6KR centrifuge at 4° C. After removal of supernatant, the cells pellet was washed with Annexin V binding buffer (10 mM Hepes-NaOH, pH 7.4, 150 mM NaCl, 5 mM KCl, 1 mM MgCl2, and 1.8 mM CaCl2). Cells were pelleted once again and incubated in the dark with Annexin V-FITC (2 μg/ml) in binding buffer for 5 min then analyzed using LSRFortessa flow cytometer (BD).

E3 (CUL4) = E3 (CUL4) (Homo sapiens (Human), UniProt Q13619); assay: E3 (CUL4) inhibition (Table 1); format: biochemical
Method: The reaction was incubated for 5 min at 37° C. […] The reaction was incubated for 5 min at room temperature. In the second step (chase), the completed Cdc34b-Ub thiol ester reaction mixture was combined with one third of the completed mono-ubiquitination mixture. The final volume was adjusted to 10 μl with a mix that contained 50 mM Tris-HCl (pH 7.4), 0.5 mM DTT, 0.1 mg/ml of BSA, 5 mM MgCl2, and 2 mM ATP. Compounds were added where indicated. The chase reaction was incubated for 10 min at 37° C. The reaction products were separated by 4-20% SDS-polyacrylamide gel electrophoresis. The reaction scheme was identical to the one described above for FIGS. 12A-B. […] The reaction products, separated by SDS-PAGE, were visualized and analyzed by phospho-imaging using Typhoon 9500 scanner.

Chain of E3 (CUL1) (Q13616 whole entry): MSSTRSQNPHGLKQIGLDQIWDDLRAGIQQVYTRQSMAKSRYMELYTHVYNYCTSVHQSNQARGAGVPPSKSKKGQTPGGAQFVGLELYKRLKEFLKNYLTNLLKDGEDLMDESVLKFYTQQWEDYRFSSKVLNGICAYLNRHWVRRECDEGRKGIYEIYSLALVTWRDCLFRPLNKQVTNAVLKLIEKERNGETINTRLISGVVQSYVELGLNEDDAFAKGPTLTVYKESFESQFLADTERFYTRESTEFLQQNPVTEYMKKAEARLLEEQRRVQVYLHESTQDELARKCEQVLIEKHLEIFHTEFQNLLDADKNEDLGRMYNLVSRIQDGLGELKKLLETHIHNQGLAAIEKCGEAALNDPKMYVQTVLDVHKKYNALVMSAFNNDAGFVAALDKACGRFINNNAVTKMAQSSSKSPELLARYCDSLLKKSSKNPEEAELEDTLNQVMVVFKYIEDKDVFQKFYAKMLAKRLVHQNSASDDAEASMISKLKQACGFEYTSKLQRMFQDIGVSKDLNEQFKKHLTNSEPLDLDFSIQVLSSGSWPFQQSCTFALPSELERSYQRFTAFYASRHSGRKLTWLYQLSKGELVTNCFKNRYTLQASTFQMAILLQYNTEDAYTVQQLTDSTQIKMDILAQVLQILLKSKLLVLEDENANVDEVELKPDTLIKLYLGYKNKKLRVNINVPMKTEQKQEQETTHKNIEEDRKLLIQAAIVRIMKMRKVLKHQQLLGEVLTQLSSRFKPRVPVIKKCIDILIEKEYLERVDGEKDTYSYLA
Chain of E3 (CUL1) (P62877 whole entry partner): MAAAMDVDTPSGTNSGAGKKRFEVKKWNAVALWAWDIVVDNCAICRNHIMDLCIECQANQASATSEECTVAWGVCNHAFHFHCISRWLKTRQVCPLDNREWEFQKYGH
Chain of E3 (CUL4) (Q13619 whole entry): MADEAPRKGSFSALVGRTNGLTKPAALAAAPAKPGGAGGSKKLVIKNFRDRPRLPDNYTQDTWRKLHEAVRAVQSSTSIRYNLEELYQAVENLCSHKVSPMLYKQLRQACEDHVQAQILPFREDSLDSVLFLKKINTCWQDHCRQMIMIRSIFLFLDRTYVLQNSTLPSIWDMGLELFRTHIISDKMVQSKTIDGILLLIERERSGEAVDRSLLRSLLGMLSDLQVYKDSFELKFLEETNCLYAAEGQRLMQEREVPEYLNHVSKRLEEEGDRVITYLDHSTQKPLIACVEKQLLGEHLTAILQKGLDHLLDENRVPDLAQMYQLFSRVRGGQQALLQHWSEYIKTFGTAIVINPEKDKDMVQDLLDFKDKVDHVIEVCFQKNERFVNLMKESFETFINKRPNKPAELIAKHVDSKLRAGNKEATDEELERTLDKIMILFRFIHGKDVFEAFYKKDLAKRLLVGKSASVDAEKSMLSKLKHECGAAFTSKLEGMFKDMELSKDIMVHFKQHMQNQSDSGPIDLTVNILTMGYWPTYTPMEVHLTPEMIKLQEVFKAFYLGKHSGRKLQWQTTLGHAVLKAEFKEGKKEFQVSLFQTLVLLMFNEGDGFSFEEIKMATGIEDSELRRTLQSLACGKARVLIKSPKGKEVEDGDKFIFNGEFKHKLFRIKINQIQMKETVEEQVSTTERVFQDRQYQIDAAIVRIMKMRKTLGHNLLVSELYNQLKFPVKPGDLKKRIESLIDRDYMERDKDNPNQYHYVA
Chain of E3 (CUL4) (P62877 whole entry partner): as the sequence (P62877 whole entry partner) above

SMILES	EC50 (E3 (CUL1))	EC50 (cancer cells)	EC50 (E3 (CUL4))
COc1ccc2c(=O)c(-c3cnn(Cc4cccc(C(F)(F)F)c4Cl)c3)c(C(F)(F)F)oc2c1OC [MSSM-RJD-MM-020]	53 µM	> 20 µM	> 10 µM
COc1ccc2c(=O)c(-c3cnn(Cc4cc(F)ccc4C(F)(F)F)c3)c(C(F)(F)F)oc2c1OC [MSSM-RJD-MM-021, 3-(1-(5-fluoro-2-(trifluoromethyl)benzyl)-1H-pyrazol-4-yl)-7,8-dimethoxy-2-(trifluoromethyl)-4H-chromen-4-one]	66 µM	~20 µM	> 10 µM
O=c1c(-c2cnn(Cc3ccccc3F)c2)c(C(F)(F)F)oc2c(O)c(O)ccc12 [MSSM-RJD-MM-022, 3-(1-(2-fluorobenzyl)-1H-pyrazol-4-yl)-7,8-dihydroxy-2-(trifluoromethyl)-4H-chromen-4-one]	30 µM	> 20 µM	> 10 µM
O=c1c(-c2cnn(Cc3cccc(Cl)c3)c2)c(C(F)(F)F)oc2c(O)c(O)ccc12 [MSSM-RJD-MM-023, 3-(1-(3-chlorobenzyl)-1H-pyrazol-4-yl)-7,8-dihydroxy-2-(trifluoromethyl)-4H-chromen-4-one]	8.4 µM	10 to 20 µM	> 10 µM
O=c1c(-c2cnn(Cc3cccc(F)c3)c2)c(C(F)(F)F)oc2c(O)c(O)ccc12 [MSSM-RJD-MM-024, 3-(1-(3-fluorobenzyl)-1H-pyrazol-4-yl)-7,8-dihydroxy-2-(trifluoromethyl)-4H-chromen-4-one]	7.9 µM	10 to 20 µM	> 10 µM
Cc1cccc(Cn2cc(-c3c(C(F)(F)F)oc4c(O)c(O)ccc4c3=O)cn2)c1 [MSSM-RJD-MM-025, 7,8-dihydroxy-3-(1-(3-methylbenzyl)-1H-pyrazol-4-yl)-2-(trifluoromethyl)-4H-chromen-4-one]	3.9 µM	10 to 20 µM	> 10 µM

The remaining lines, values ahead:

EC50 (E3 (CUL1))	EC50 (cancer cells)	EC50 (E3 (CUL4))	SMILES
6.5 µM	> 20 µM	> 10 µM	O=c1c(-c2cnn(Cc3cc(C(F)(F)F)ccc3F)c2)c(C(F)(F)F)oc2c(O)c(O)ccc12 [MSSM-RJD-MM-026, 3-(1-(2-fluoro-5-(trifluoromethyl)benzyl)-1H-pyrazol-4-yl)-7,8-dihydroxy-2-(trifluoromethyl)-4H-chromen-4-one]
5.6 µM	10 to 20 µM	> 10 µM	O=c1c(-c2cnn(Cc3cc(C(F)(F)F)ccc3Cl)c2)c(C(F)(F)F)oc2c(O)c(O)ccc12 [MSSM-RJD-MM-027, 3-(1-(2-chloro-5-(trifluoromethyl)benzyl)-1H-pyrazol-4-yl)-7,8-dihydroxy-2-(trifluoromethyl)-4H-chromen-4-one]
7.3 µM	~20 µM	~10 µM	O=c1c(-c2cnn(Cc3cc(F)ccc3C(F)(F)F)c2)c(C(F)(F)F)oc2c(O)c(O)ccc12 [MSSM-RJD-MM-028]
